Laboratory results: patent US9863953B2, “Method for determining prognosis of cancer” (KYOTO UNIVERSITY, priority 2013, dated 2018)
Entries after “also recorded” stand apart in the source; their conditions may differ.

Key:
[1] = system: TRIO; experiment: Cell-free RhoGEF GTP exchange assay; assay type: biochemical, human; settings: TRIO(WT) from imatinib-treated HEK293T transfectants; recombinant RhoA, mant-GTP, 10 min
Excerpt: First, we transfected HEK293T cells with an expression plasmid for T7-TRIO (either WT, Y2681F or G2699V), and pulled-down each TRIO protein from cell lysates using agarose conjugated with anti-T7 antibody (MBL). Then we mixed the TRIO fraction with recombinant RhoA in the presence of mant-GTP (Cytoskeleton) that emits stronger fluorescence when bound to Rho small GTPases (Rossman et al., 2002).

[2] = system: Apc/Aes compound mutant mice; experiment: Tumor invasion histopathology in Apc/Aes compound mutant mice; assay type: in vivo, mouse; settings: 50 mg/kg/day i.p. for 9 weeks
Excerpt: Apc^+/Δ716 mutant mice were generated and maintained as described previously {Oshima, 1995}. Apc^+/Δ716Aes^Floxed/FloxedvCre^ERT2 (abbreviated as Apc/Aes) mice were constructed as reported to knockout Aes in Apc^+/Δ716 mice by virtue of Cre^ERT2 whose expression is driven by intestinal epithelium-specific villin promoter {Sonoshita, 2011}. Rbpj floxed allele was constructed as reported {Han, 2002}, obtained from RIKEN BRC, and crossed with Apc/Aes mice to derive Apc^+/Δ716Aes^Floxed/FloxedRbpj^Floxed/FloxedvCre^ERT2 (Apc/Aes/Rbpj) mice. Dab1 floxed allele was constructed (Imai et al., in preparation) and crossed with Apc/Aes mice to obtain Apc^+/Δ716Aes^Floxed/FloxedDab1^Floxed/FloxedvCre^ERT2 (Apc/Aes/Dab1) mice. Tumor histopathology in compound mutant mice was analyzed at 12 weeks of age. […] Total of ˜100 tumors with diameters larger than 2 mm from 5 mice were scored for each mutant genotype. CRC cell lines were obtained from ATCC. Upon transplantation into the rectal smooth muscle, CRC cells formed a visible primary tumor within a week. Six weeks later, mice were euthanized and examined for metastatic foci under a fluorescent microscope (Leica). All animal experiments were conducted according to the protocol approved by the Animal Care and Use Committee of Kyoto University.

[3] = system: Rho; experiment: Active Rho (GTP-Rho) pull-down assay in RKO cells; assay type: cell-based, human
Method: GTP-Rho was pulled-down and detected by using Rho activation assay kit (Thermo) according to the manufacturers' protocol. Briefly, tissues or CRC cells were lysed with lysis buffer, and GTP-Rho in the lysates was pulled-down using Rhotekin and detected by anti-Rho antibody in western analysis.
(§1) Recombinant DLL4 (rDLL4) (R&D) was resuspended with PBS. For scratch and GTP-Rho pull-down assays, 1 μg was put into 6-well culture plate to coat its surface with rDLL4 at 0.1 μg/cm^2. For q-RT-PCR assays, the plate surface was coated with rDLL4 at 0.1-1 μg/cm^2. After overnight incubation at 4-degree, the plates were washed once with PBS and plated with CRC cells. For expression analysis of HES1 and DAB1, cells were lysed and mRNA was extracted after four hours.
(§2) Cultured CRC cells were washed with PBS, treated with 10 mM EDTA in PBS for 2 minutes, and incubated again in culture media. […] After incubation for defined period, cells were lysed and cleaved Notch and GTP-Rho was detected. DAPT (Calbiochem) were applied to cultured CRC cells to inhibit its γ-secretase activity.

[4] = system: RKO human CRC cells; experiment: Matrigel invasion assay, RKO cells; assay type: cell-based; settings: for Matrigel invasion of RKO cells: inhibitor treatment 16 h prior to assay
Method: (§3) Matrigel invasion assays were performed as previously described using Matrigel (BD) {Sonoshita, 2011}. For TEM assay, human umbilical vein endothelial cell (HUVEC) was seeded in the upper chamber of Transwell (Corning). One day (24 h) later, EGFP-labeled CRC cells were plated onto the layer of HUVEC. After 24 h, CRC cells migrated to the lower side of the membrane were counted under a fluorescent microscope.

[5] = system: HCT116 cells; experiment: Matrigel invasion assay, HCT116 cells; assay type: cell-based, human
Method: as §3

[6] = system: RKO human CRC cells; experiment: Transendothelial migration (TEM) assay, RKO cells; assay type: cell-based; settings: inhibitor treatment 16 h prior, HUVEC layer, 24 h
Method: as §3

[7] = system: HCT116; experiment: Transendothelial migration (TEM) assay, HCT116 cells; assay type: cell-based, human; settings: HCT116, data not shown
Method: as §3

[8] = system: DAB1; experiment: DAB1 mRNA quantitative RT-PCR in LS174T cells on rDLL4; assay type: cell-based, human
Method: as §1
TaqMan primers/probes for quantification of HES1, DAB1, ABL1, and ABL2 mRNAs were purchased from ABI. ChIP analyses were performed by using CRC cells and anti-Rbpj (Institute of Immunology) and anti-NICD (Cell Signaling Technology) antibodies according to published protocol (Kakizaki et al., 2010). Precipitated fragments of genomic DNA were tested for enrichment of promoter regions of HES1 gene by SYBR green (ABI) using hHES1ChIP.F ([…]) (SEQ ID NO: 4) and hHES1ChIP.R ([…]) (SEQ ID NO: 5) primers that sandwich high affinity binding sequence of Rbpj. Similarly, enrichment of DAB1 promoter fragments was quantified by hDAB1ChIP.F2 ([…]) (SEQ ID NO: 6) and hDAB1ChIP.R2 ([…]) (SEQ ID NO: 7) primers.

[9] = system: Notch receptor; experiment: Notch receptor cleavage (NICD) after EDTA treatment, IP-western; assay type: cell-based, human; settings: 10 mM EDTA; anti-Notch1 (C-term) antibody
Method: as §2
ABL1B cDNA was prepared from cDNA pool of human colon and tagged with hemaglutinin (HA) sequence to construct ABL1B-HA. The wild-type cDNA was mutagenized by QuikChange Lightning Multi Site-Directed Mutagenesis Kit (Agilent) to derive kinase-dead ABL1B(K290R)-HA mutant. These ABL1B constructs were placed into pEFBosneo expression vector (provided by Shigekazu Nagata, Kyoto University, Japan). DAB1-Flag cDNA was inserted into pcDNA3 (Invitrogen). TRIO cDNA (provided by Anne Debant, CRBM-CNRS, France) was tagged with T7 sequence and inserted into pCX expression vector carrying CAG promoter and rabbit β-globin poly(A) (provided by Masaru Okabe, Osaka University, Japan). NICD-Myc expression vector was provided by Tasuku Honjo, Kyoto University, Japan. These expression vectors were transfected into CRC or HEK293T cells using Lipofectamine LTX (Invitrogen). Sixteen hours post-transfection, the cells were lysed in lysis buffer (10 mM Tris-Cl, 1 mM EDTA, 150 mM NaCl and 1% NP-40). The supernatants were mixed with agarose conjugated with anti-HA, Flag, T7, or Myc antibodies (MBL). […]

[10] = system: HCT116 cells; experiment: Attachment assay of CRC cells to lung endothelial cell layer; assay type: cell-based, human
Method: Attachment assay was performed according to the established protocol {Reymond, 2012}. Briefly, human lung endothelial cells were plated onto collagen-coated dish. After they reached confluent to form a layer, EGFP-labeled CRC cells were plated onto it. Fifteen minutes later, floating cells were washed with PBS, and the numbers of CRC cells adhering to the endothelial layer were counted under a fluorescent microscope.

With `Cc1ccc(NC(=O)c2ccc(CN3CCN(C)CC3)cc2)cc1Nc1nccc(-c2cccnc2)n1` [imatinib, 4-(4-methylpiperazin-1-ylmethyl)-N-[4-methyl-3-(4-(pyridin-3-yl)-pyrimidin-2-ylamino-)phenyl]-benzamide] as the compound, how does the “Capacity of Rho activation (RhoGEF activity) of TRIO(WT) purified from imatinib-treated cells” value [1] read?
Its value is “significantly decreased”.

What about the “tumor size or number” value [2] of the same compound?
The value was “without changing”.

And the “CRC invasion (depth of tumor invasion)” value ([2]; 50 mg/kg/day)?
The value was “significant suppression; also recorded: suppresses”.

And the “Rho activation (GTP-Rho) induced by EDTA” value ([3]; RKO cells, pull-down 5 minutes after EDTA, dose-dependent)?
Its value is “blocked; also recorded: inhibits”.

What about the “Matrigel invasion of RKO cells” value [4] of the same compound?
Its value is “blocks”.

Which Matrigel invasion ([5]; PP2 at 10 μm, FIG. 10A) does the source give for `CC(C)(C)n1nc(-c2ccc(Cl)cc2)c2c(N)ncnc21` [PP2] here?
The Matrigel invasion was “only a minor effect”.

What about the “effect on the RKO cell invasion in culture” value ([4]; RKO cell invasion in culture, FIG. 10A) of the same compound?
Its value is ~20%.

And the “Matrigel invasion of RKO cells” value [4]?
The value was “only a minor inhibition”.

Which results are given for `C[C@@H](N)[C@H]1CC[C@H](C(=O)Nc2ccncc2)CC1` [Y-27632]?
Matrigel invasion of HCT116 cells ([5]; HCT116, data not shown): suppressed; Transendothelial migration (TEM) of RKO cells [6]: suppresses; Matrigel invasion of RKO cells [4]: suppresses; Transendothelial migration (TEM) of HCT116 cells [7]: suppressed

Which “Matrigel invasion of RKO cells” value [4] does the source give for `CCN(CC)CCCC(C)Nc1nc(C)cc(Nc2ccc3nc(C)cc(N)c3c2)n1` (centres unmarked) [NSC23766] here?
Its value is “did not affect”.

What about the “Matrigel invasion of RKO cells” value ([4]; listed as NSC27366) of the same compound?
Its value is “Little effect”.

For “rDLL4: recombinant extracellular domain of Notch ligand DLL4 (R&D), immobilized on dish surface”, which “DAB1 mRNA expression” value ([8]; LS174T on immobilized rDLL4 0.1-1 μg/cm^2, 4 h, dose-dependent) is on record?
Its value is “increased; also recorded: induces”.

And the “Rho activation (GTP-Rho)” value ([3]; cultured CRC cells on dishes coated with rDLL4)?
Its value is “activated”.

Which results are given for `Cc1nc(Nc2ncc(C(=O)Nc3c(C)cccc3Cl)s2)cc(N2CCN(CCO)CC2)n1.O` [dasatinib, N-(2-chloro-6-methylphenyl)-2-[[6-[4-(2-hydroxyethyl)-1-piperazinyl]-2-methyl-4-pyrimidinyl]amino]-5-thiazole carboxamide monohydrate]?
HCT116 cell invasion in Matrigel ([5]; dasatinib at 0.01 μm, FIG. 10A): tight suppression; Matrigel invasion of RKO cells [4]: suppressed the invasion significantly

How did the “Cleaved Notch receptor (NICD) upon EDTA treatment” value [9] turn out when `C[C@H](NC(=O)Cc1cc(F)cc(F)c1)C(=O)N[C@H](C(=O)OC(C)(C)C)c1ccccc1` [DAPT] was run?
The value was “blocked; also recorded: inhibited”.

What about the “Number of CRC cells remaining attached to the EC layer” value ([10]; HCT116 treated 2 hours, washing at 15 min post plating) of the same compound?
Its value is “reduced”.

And the “EC adhesion of CRC cells with RBPJ knocked-down” value ([10]; RBPJ-knockdown HCT116, DAPT 2 hours)?
The value was “prevented”.

What about the “DAB1 mRNA expression induced by rDLL4” value ([8]; LS174T, 10 μM DAPT for 24 h, rDLL4-coated dishes, 4 h) of the same compound?
Its value is “inhibited”.

And the “Rho activation (GTP-Rho) after Notch receptor activation with EDTA” value ([3]; RKO cells, 10 μM DAPT for 12 h, then 10 mM EDTA)?
The value was “inhibited; also recorded: Suppression”.
